In US20240252488A1 (KOREA RESEARCH INSTITUTE OF CHEMICAL TECHNOLOGY, priority 2020, published 2024):

Tests used:
[1] = system: FADD−/− Jurkat cells; assay: Necroptosis inhibition assay, TNF-α-induced necroptosis (CellTiter-Glo 2.0); assay type: cell-based, human; details: TNF-α 15 ng/mL, FADD−/− Jurkat cells; for Necroptosis inhibition assay (Rescue %) 1 μM: compound 1 μM; for Necroptosis inhibition assay (Rescue %) 10 μM: compound 10 μM
Procedure, shortened: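 Cells at 5.0×10^5 cells/mL were pretreated with compound (final 0.1, 1 and 10 μM) for 30 minutes at room temperature, then given TNF-α at 15 ng/mL final. After 20 to 24 hours at 37° C, 5% CO2, viability was read as ATP luminescence to calculate cytotoxicity and necroptosis inhibition rate.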

[2] = target: T1, MLKL (Homo sapiens, UniProt Q8NB16); assay: MLKL degradation assay in HepG2 cell line (western blot); assay type: cell-based; parameters: endogenous in cells; host or cells: HepG2 or HaCaT; details: cell line not given; for Degradation assay (Degradation %) 1 μM: compound 1 μM; for Degradation assay (Degradation %) 10 μM: compound 10 μM
T1 sequence (Q8NB16 1-471): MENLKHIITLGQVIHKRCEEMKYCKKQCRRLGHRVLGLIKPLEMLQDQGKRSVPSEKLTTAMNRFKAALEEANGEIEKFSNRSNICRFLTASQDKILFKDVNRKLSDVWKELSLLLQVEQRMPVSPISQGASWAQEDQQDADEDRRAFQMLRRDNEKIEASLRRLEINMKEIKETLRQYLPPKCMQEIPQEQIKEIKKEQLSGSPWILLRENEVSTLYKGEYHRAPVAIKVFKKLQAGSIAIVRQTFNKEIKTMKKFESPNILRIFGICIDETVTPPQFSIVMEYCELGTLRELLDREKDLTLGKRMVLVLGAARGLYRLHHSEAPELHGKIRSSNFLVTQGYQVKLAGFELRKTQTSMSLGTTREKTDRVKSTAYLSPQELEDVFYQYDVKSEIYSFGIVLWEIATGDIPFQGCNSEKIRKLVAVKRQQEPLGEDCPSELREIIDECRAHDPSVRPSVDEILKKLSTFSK
Procedure, shortened: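 HepG2 cells were exposed to compound at a final 1 or 10 μM for 20-24 hours at 37 °C, 5% CO2. RIPA lysates were normalized by BCA assay, 10-15 μg protein resolved by SDS-PAGE, and MLKL levels detected by western blot with chemiluminescence.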

[3] = target: T1, MLKL; assay: Measurement of binding affinity with MLKL receptor (competitive binding assay, Kd); parameters: made in house; host or cells: HEK 293 cell line (T7 phage in E. coli BL21-derived host is also described)
Procedure, shortened: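 qPCR of MLKL eluted from liganded beads served as the read-out, from which Kd was derived. The protein was made in HEK 293 cells with a DNA tag, and test compounds competed with the bead-bound ligand at 0.9% final DMSO.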

Degradation assay (Degradation %) 1 μM [2] [%]	Degradation assay (Degradation %) 10 μM [2] [%]	Kd [3] [nM]	Compound	Necroptosis inhibition assay (Rescue %) 1 μM [1] [%]	Necroptosis inhibition assay (Rescue %) 10 μM [1] [%]
73.88	38.71	1.4	Nc1ncc(-c2cnn(C3CCN(CCCN4CCN(C(=O)C5CN(C6=CC(=O)N(C7CCC(=O)NC7=O)C6=O)C5)CC4)CC3)c2)nc1C(=O)O[C@@H](C(=O)Nc1ccc(F)cc1)c1ccccc1 (stereo partly drawn) [TDH-532, (R)-2-((4-fluorophenyl)amino)-2-oxo-1-phenylethyl 3-amino-6-(1-(1-(3-(4-(1-(1-(2,6-dioxopiperidin-3-yl)-2,5-dioxo-2,5-dihydro-1H-pyrrol-3-yl)azetidine-3-carbonyl)piperazin-1-yl)propyl)piperidin-4-yl)-1H-pyrazol-4-yl)pyrazine-2-carboxylate]	21.37	24.82
33.35	29.05	0.47	Nc1ncc(-c2cnn(C3CCN(CC4CCN(CC5CCN(C(=O)C6CN(C7=CC(=O)N(C8CCC(=O)NC8=O)C7=O)C6)CC5)CC4)CC3)c2)nc1C(=O)O[C@@H](C(=O)Nc1ccc(F)cc1)c1ccccc1 (stereo partly drawn) [TDH-533, (R)-2-((4-fluorophenyl)amino)-2-oxo-1-phenylethyl 3-amino-6-(1-(1-((1-((1-(1-(1-(2,6-dioxopiperidin-3-yl)-2,5-dioxo-2,5-dihydro-1H-pyrrol-3-yl)azetidine-3-carbonyl)piperidin-4-yl)methyl)piperidin-4-yl)methyl)piperidin-4-yl)-1H-pyrazol-4-yl)pyrazine-2-carboxylate]	11.86	22.99
49.96	24.88	0.24	Nc1ncc(-c2cnn(C3CCN(C4CC5(CCN(CC6CCN(C(=O)C7CN(C8=CC(=O)N(C9CCC(=O)NC9=O)C8=O)C7)CC6)CC5)C4)CC3)c2)nc1C(=O)O[C@@H](C(=O)Nc1ccc(F)cc1)c1ccccc1 (stereo partly drawn) [TDH-534, (R)-2-((4-fluorophenyl)amino)-2-oxo-1-phenylethyl 3-amino-6-(1-(1-(7-((1-(1-(1-(2,6-dioxopiperidin-3-yl)-2,5-dioxo-2,5-dihydro-1H-pyrrol-3-yl)azetidine-3-carbonyl)piperidin-4-yl)methyl)-7-azaspiro[3.5]nonan-2-yl)piperidin-4-yl)-1H-pyrazol-4-yl)pyrazine-2-carboxylate]	21.33	22.25
57.69	44.41	0.96	Nc1ncc(-c2cnn(C3CCN(CCCN4CCN(C(=O)c5ccc(C(=O)NC6CCC(=O)NC6=O)cc5)CC4)CC3)c2)nc1C(=O)O[C@@H](C(=O)Nc1ccc(F)cc1)c1ccccc1 (stereo partly drawn) [TDH-535, (R)-2-((4-fluorophenyl)amino)-2-oxo-1-phenylethyl 3-amino-6-(1-(1-(3-(4-(4-((2,6-dioxopiperidin-3-yl)carbamoyl)benzoyl)piperazin-1-yl)propyl)piperidin-4-yl)-1H-pyrazol-4-yl)pyrazine-2-carboxylate]	20.08	23.78
46.11	56.40	0.22	Nc1ncc(-c2cnn(C3CCN(CCC4CCN(C(=O)c5ccc(C(=O)NC6CCC(=O)NC6=O)cc5)CC4)CC3)c2)nc1C(=O)O[C@@H](C(=O)Nc1ccc(F)cc1)c1ccccc1 (stereo partly drawn) [TDH-536, (R)-2-((4-fluorophenyl)amino)-2-oxo-1-phenylethyl 3-amino-6-(1-(1-(2-(1-(4-((2,6-dioxopiperidin-3-yl)carbamoyl)benzoyl)piperidin-4-yl)ethyl)piperidin-4-yl)-1H-pyrazol-4-yl)pyrazine-2-carboxylate]	31.84	21.93
64.82	86.14	0.61	Nc1ncc(-c2cnn(C3CCN(C4CC5(CCN(CC6CCN(C(=O)c7ccc(C(=O)NC8CCC(=O)NC8=O)cc7)CC6)CC5)C4)CC3)c2)nc1C(=O)O[C@@H](C(=O)Nc1ccc(F)cc1)c1ccccc1 (stereo partly drawn) [TDH-537, (R)-2-((4-fluorophenyl)amino)-2-oxo-1-phenylethyl 3-amino-6-(1-(1-(7-((1-(4-((2,6-dioxopiperidin-3-yl)carbamoyl)benzoyl)piperidin-4-yl)methyl)-7-azaspiro[3.5]nonan-2-yl)piperidin-4-yl)-1H-pyrazol-4-yl)pyrazine-2-carboxylate]	32.07	30.76
66.34	54.70	0.31	Nc1ncc(-c2cnn(C3CCN(CCOC4CCN(C(=O)c5ccc(C(=O)NC6CCC(=O)NC6=O)cc5)CC4)CC3)c2)nc1C(=O)O[C@@H](C(=O)Nc1ccc(F)cc1)c1ccccc1 (stereo partly drawn) [TDH-538, (R)-2-((4-fluorophenyl)amino)-2-oxo-1-phenylethyl 3-amino-6-(1-(1-(2-((1-(4-((2,6-dioxopiperidin-3-yl)carbamoyl)benzoyl)piperidin-4-yl)oxy)ethyl)piperidin-4-yl)-1H-pyrazol-4-yl)pyrazine-2-carboxylate]	24.02	21.52
70.67	89.04	0.68	Nc1ncc(-c2cnn(C3CCN(CC4CCN(CC5CCN(C(=O)c6ccc(C(=O)NC7CCC(=O)NC7=O)cc6)CC5)CC4)CC3)c2)nc1C(=O)O[C@@H](C(=O)Nc1ccc(F)cc1)c1ccccc1 (stereo partly drawn) [TDH-539, (R)-2-((4-fluorophenyl)amino)-2-oxo-1-phenylethyl 3-amino-6-(1-(1-((1-((1-(4-((2,6-dioxopiperidin-3-yl)carbamoyl)benzoyl)piperidin-4-yl)methyl)piperidin-4-yl)methyl)piperidin-4-yl)-1H-pyrazol-4-yl)pyrazine-2-carboxylate]	46.99	30.33
81.44	56.99	0.37	Cn1c(=O)n(C2CCC(=O)NC2=O)c2ccc(N3CCC(C(=O)N4CCN(CCCN5CCC(n6cc(-c7cnc(N)c(C(=O)O[C@@H](C(=O)Nc8ccc(F)cc8)c8ccccc8)n7)cn6)CC5)CC4)CC3)cc21 (stereo partly drawn) [TDH-540, (R)-2-((4-fluorophenyl)amino)-2-oxo-1-phenylethyl 3-amino-6-(1-(1-(3-(4-(1-(1-(2,6-dioxopiperidin-3-yl)-3-methyl-2-oxo-2,3-dihydro-1H-benzo[d]imidazol-5-yl)piperidine-4-carbonyl)piperazin-1-yl)propyl)piperidin-4-yl)-1H-pyrazol-4-yl)pyrazine-2-carboxylate]	20.79	17.37
